Experimental data: US20250215012A1, “IKZF2 DEGRADERS AND USES THEREOF” (REGENTS OF THE UNIVERSITY OF MICHIGAN, priority 2022, published 2025)

Molecular target: IKZF2 (Homo sapiens (Human), UniProt Q96SW2+Q9UKS7)
Experiment: IKZF2 HiBiT Assay (Jurkat-IKZF2-HiBiT cell line)
Type: cell-based
Settings: Jurkat-IKZF2-HiBiT cells, 24 hours; for DC50: read-out: HiBit assay degradation analysis DC50; for Dmax: read-out: HiBit assay degradation analysis Dmax
Outline: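 IKZF2 degradation was assessed as HiBiT luminescence in Jurkat-IKZF2-HiBiT cells, using lytic detection after 24 h of compound treatment at 37 °C, 5% CO2.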

Sequence of IKZF2 (Q9UKS7 whole entry): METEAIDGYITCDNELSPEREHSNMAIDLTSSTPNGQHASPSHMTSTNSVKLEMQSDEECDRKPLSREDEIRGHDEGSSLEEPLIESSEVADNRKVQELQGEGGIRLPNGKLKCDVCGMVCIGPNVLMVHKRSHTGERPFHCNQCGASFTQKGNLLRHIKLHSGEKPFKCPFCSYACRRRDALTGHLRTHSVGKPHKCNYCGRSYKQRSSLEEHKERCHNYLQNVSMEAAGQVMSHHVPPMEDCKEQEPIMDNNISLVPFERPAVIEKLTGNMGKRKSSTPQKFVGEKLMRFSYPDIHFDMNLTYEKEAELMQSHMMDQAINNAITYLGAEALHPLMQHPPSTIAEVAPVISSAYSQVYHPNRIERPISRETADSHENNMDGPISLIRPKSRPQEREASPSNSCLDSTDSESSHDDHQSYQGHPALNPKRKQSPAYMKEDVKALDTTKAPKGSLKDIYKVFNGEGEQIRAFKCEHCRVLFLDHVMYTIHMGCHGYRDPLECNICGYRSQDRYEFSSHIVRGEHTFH
Sequence of IKZF2 (Q96SW2 whole entry): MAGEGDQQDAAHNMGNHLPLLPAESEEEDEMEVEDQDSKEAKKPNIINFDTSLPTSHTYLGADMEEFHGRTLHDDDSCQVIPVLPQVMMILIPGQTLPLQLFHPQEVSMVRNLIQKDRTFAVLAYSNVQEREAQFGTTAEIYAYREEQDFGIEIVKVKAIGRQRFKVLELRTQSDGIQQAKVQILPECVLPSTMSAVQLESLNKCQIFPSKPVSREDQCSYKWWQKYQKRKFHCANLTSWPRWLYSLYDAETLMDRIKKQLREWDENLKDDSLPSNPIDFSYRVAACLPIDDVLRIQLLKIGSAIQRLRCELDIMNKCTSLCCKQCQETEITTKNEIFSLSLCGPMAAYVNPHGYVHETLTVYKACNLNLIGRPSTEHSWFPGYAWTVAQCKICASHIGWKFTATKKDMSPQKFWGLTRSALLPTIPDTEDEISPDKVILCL
Sequence of IKZF2 (Q16531 whole entry partner): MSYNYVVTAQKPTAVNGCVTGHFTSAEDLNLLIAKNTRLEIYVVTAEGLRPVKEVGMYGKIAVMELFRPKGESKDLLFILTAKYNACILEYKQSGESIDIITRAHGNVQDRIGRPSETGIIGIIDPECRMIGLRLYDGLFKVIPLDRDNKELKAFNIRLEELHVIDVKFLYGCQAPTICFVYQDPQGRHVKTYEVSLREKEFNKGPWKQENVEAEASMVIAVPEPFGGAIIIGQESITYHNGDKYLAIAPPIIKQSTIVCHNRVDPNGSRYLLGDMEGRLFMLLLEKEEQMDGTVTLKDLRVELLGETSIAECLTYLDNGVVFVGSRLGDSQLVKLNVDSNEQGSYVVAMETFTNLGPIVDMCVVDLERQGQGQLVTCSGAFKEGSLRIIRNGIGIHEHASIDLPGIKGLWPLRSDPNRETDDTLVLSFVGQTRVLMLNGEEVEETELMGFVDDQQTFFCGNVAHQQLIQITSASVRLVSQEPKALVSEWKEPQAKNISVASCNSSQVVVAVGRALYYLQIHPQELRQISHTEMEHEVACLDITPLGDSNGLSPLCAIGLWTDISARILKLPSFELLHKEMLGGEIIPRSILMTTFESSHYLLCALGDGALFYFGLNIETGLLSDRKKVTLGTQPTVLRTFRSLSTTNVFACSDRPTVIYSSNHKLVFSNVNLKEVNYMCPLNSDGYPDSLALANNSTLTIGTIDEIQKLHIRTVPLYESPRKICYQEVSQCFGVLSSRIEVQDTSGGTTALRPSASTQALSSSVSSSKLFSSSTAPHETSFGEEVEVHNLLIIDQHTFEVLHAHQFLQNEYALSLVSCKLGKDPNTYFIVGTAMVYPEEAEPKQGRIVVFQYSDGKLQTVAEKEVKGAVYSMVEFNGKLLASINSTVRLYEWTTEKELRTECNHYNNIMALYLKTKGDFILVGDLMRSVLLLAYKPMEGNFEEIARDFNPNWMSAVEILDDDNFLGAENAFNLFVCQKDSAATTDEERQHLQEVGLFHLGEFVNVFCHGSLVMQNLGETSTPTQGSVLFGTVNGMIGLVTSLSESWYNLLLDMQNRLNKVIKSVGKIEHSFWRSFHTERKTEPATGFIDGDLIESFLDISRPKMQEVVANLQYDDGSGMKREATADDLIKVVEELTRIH

SMILES | DC50 [nM] | Dmax [%] | HiBit assay degradation analysis Dmax
O=C1CC[C@H](N2Cc3c(ccc4c3OCC43CCN(Cc4cnn(S(=O)(=O)c5ccccc5Cl)c4)CC3)C2=O)C(=O)N1 [Compound A349, (S)-3-(1′-((1-((2-chlorophenyl)sulfonyl)-1H-pyrazol-4-yl)methyl)-6-oxo-6,8-dihydro-2H,7H-spiro[furo[2,3-e]isoindole-3,4′-piperidin]-7-yl)piperidine-2,6-dione] | < 50 | 60 to 80 | 
O=C1CCC(N2Cc3c(ccc4c3OCC43CCN(Cc4cnn(S(=O)(=O)c5cccc(Cl)c5)c4)CC3)C2=O)C(=O)N1 [Compound A350, (S)-3-(1′-((1-((3-chlorophenyl)sulfonyl)-1H-pyrazol-4-yl)methyl)-6-oxo-6,8-dihydro-2H,7H-spiro[furo[2,3-e]isoindole-3,4′-piperidin]-7-yl)piperidine-2,6-dione] | < 50 |  | 
O=C1CC[C@H](N2Cc3c(ccc4c3OCC43CCN(Cc4cnn(S(=O)(=O)c5cccc(Cl)c5)c4)CC3)C2=O)C(=O)N1 [Compound A350, (S)-3-(1′-((1-((3-chlorophenyl)sulfonyl)-1H-pyrazol-4-yl)methyl)-6-oxo-6,8-dihydro-2H,7H-spiro[furo[2,3-e]isoindole-3,4′-piperidin]-7-yl)piperidine-2,6-dione] |  | 60 to 80 | 
O=C1CCC(N2Cc3c(ccc4c3OCC43CCN(C[C@H]4C[C@H](Oc5ccc(F)cc5)C4)CC3)C2=O)C(=O)N1 (stereo partly drawn) [Compound A351, 3-(1′-(((1r,3r)-3-(4-fluorophenoxy)cyclobutyl)methyl)-6-oxo-6,8-dihydro-2H,7H-spiro[furo[2,3-e]isoindole-3,4′-piperidin]-7-yl)piperidine-2,6-dione] | > 500 | 40 to 60 | 
O=C1CCC(N2Cc3c(ccc4c3OCC43CCN(Cc4cnn(S(=O)(=O)c5ccc(Cl)cc5)c4)CC3)C2=O)C(=O)N1 [Compound A352, (S)-3-(1′-((1-((4-chlorophenyl)sulfonyl)-1H-pyrazol-4-yl)methyl)-6-oxo-6,8-dihydro-2H,7H-spiro[furo[2,3-e]isoindole-3,4′-piperidin]-7-yl)piperidine-2,6-dione] | 200 to 500 |  | 
O=C1CC[C@H](N2Cc3c(ccc4c3OCC43CCN(Cc4cnn(S(=O)(=O)c5ccc(Cl)cc5)c4)CC3)C2=O)C(=O)N1 [Compound A352, (S)-3-(1′-((1-((4-chlorophenyl)sulfonyl)-1H-pyrazol-4-yl)methyl)-6-oxo-6,8-dihydro-2H,7H-spiro[furo[2,3-e]isoindole-3,4′-piperidin]-7-yl)piperidine-2,6-dione] |  | < 40 | 
O=C1CCC(N2Cc3c(ccc4c3OCC43CCN(Cc4cnn(S(=O)(=O)c5ccc(F)c(F)c5)c4)CC3)C2=O)C(=O)N1 [Compound A353, (S)-3-(1′-((1-((3,4-difluorophenyl)sulfonyl)-1H-pyrazol-4-yl)methyl)-6-oxo-6,8-dihydro-2H,7H-spiro[furo[2,3-e]isoindole-3,4′-piperidin]-7-yl)piperidine-2,6-dione] | > 500 |  | 
O=C1CC[C@H](N2Cc3c(ccc4c3OCC43CCN(Cc4cnn(S(=O)(=O)c5ccc(F)c(F)c5)c4)CC3)C2=O)C(=O)N1 [Compound A353, (S)-3-(1′-((1-((3,4-difluorophenyl)sulfonyl)-1H-pyrazol-4-yl)methyl)-6-oxo-6,8-dihydro-2H,7H-spiro[furo[2,3-e]isoindole-3,4′-piperidin]-7-yl)piperidine-2,6-dione] |  | 40 to 60 | 
O=C1CCC(N2Cc3c(ccc4c3OCC43CCN(Cc4cnn(S(=O)(=O)c5ccc(F)cc5)c4)CC3)C2=O)C(=O)N1 [Compound A354, (S)-3-(1′-((1-((4-fluorophenyl)sulfonyl)-1H-pyrazol-4-yl)methyl)-6-oxo-6,8-dihydro-2H,7H-spiro[furo[2,3-e]isoindole-3,4′-piperidin]-7-yl)piperidine-2,6-dione] | > 500 |  | 
O=C1CC[C@H](N2Cc3c(ccc4c3OCC43CCN(Cc4cnn(S(=O)(=O)c5ccc(F)cc5)c4)CC3)C2=O)C(=O)N1 [Compound A354, (S)-3-(1′-((1-((4-fluorophenyl)sulfonyl)-1H-pyrazol-4-yl)methyl)-6-oxo-6,8-dihydro-2H,7H-spiro[furo[2,3-e]isoindole-3,4′-piperidin]-7-yl)piperidine-2,6-dione] |  | 40 to 60 | 
O=C1CC[C@H](N2Cc3c(ccc4c3OCC43CCN(Cc4cnn(S(=O)(=O)c5ccccc5F)c4)CC3)C2=O)C(=O)N1 [Compound A355, (S)-3-(1′-((1-((2-fluorophenyl)sulfonyl)-1H-pyrazol-4-yl)methyl)-6-oxo-6,8-dihydro-2H,7H-spiro[furo[2,3-e]isoindole-3,4′-piperidin]-7-yl)piperidine-2,6-dione] | 200 to 500 |  | C (“C” >=40% and <60%)
O=C1CCC(N2Cc3c(ccc4c3OCC43CCN(C[C@H]4C[C@H](Oc5ccc(F)cc5)C4)CC3)C2=O)C(=O)N1 (stereo partly drawn) [Compound A356, 3-(1′-(((1r,3r)-3-(4-fluorophenoxy)cyclobutyl)methyl)-6-oxo-6,8-dihydro-2H,7H-spiro[furo[2,3-e]isoindole-3,4′-piperidin]-7-yl)piperidine-2,6-dione] | > 500 |  | 
O=C1CCC(N2Cc3c(ccc4c3OCC43CCN(Cc4cnn(S(=O)(=O)c5cccc(Cl)c5F)c4)CC3)C2=O)C(=O)N1 [Compound A357, (S)-3-(1′-((1-((3-chloro-2-fluorophenyl)sulfonyl)-1H-pyrazol-4-yl)methyl)-6-oxo-6,8-dihydro-2H,7H-spiro[furo[2,3-e]isoindole-3,4′-piperidin]-7-yl)piperidine-2,6-dione] | < 50 |  | 
O=C1CC[C@H](N2Cc3c(ccc4c3OCC43CCN(Cc4cnn(S(=O)(=O)c5cccc(Cl)c5F)c4)CC3)C2=O)C(=O)N1 [Compound A357, (S)-3-(1′-((1-((3-chloro-2-fluorophenyl)sulfonyl)-1H-pyrazol-4-yl)methyl)-6-oxo-6,8-dihydro-2H,7H-spiro[furo[2,3-e]isoindole-3,4′-piperidin]-7-yl)piperidine-2,6-dione] |  | 60 to 80 | 
O=C1CC[C@H](N2Cc3c(ccc4c3OCC43CCN(C[C@H]4C[C@@H](Oc5ccc(F)cc5)C4)CC3)C2=O)C(=O)N1 [Compound A358, (S)-3-(1′-(((1s,3R)-3-(4-fluorophenoxy)cyclobutyl)methyl)-6-oxo-6,8-dihydro-2H,7H-spiro[furo[2,3-e]isoindole-3,4′-piperidin]-7-yl)piperidine-2,6-dione] | > 500 | 40 to 60 | 
N#Cc1ccc(-n2cc(CN3CCC4(CC3)COc3c4ccc4c3CN([C@H]3CCC(=O)NC3=O)C4=O)cn2)cc1 [Compound A359, (S)-4-(4-((7-(2,6-dioxopiperidin-3-yl)-6-oxo-7,8-dihydro-2H,6H-spiro[furo[2,3-e]isoindole-3,4′-piperidin]-1′-yl)methyl)-1H-pyrazol-1-yl)benzonitrile] | < 50 | 60 to 80 | 
O=C1CC[C@H](N2Cc3c(ccc4c3OCC43CCN(Cc4cnn(-c5ccc(C(F)(F)F)cc5)c4)CC3)C2=O)C(=O)N1 [Compound A360, (S)-3-(6-oxo-1′-((1-(4-(trifluoromethyl)phenyl)-1H-pyrazol-4-yl)methyl)-6,8-dihydro-2H,7H-spiro[furo[2,3-e]isoindole-3,4′-piperidin]-7-yl)piperidine-2,6-dione] | < 50 | 60 to 80 | 
CC(C)Oc1cc(F)ccc1CN1CCC2(CC1)COc1c2ccc2c1CN([C@H]1CCC(=O)NC1=O)C2=O [Compound A361, (S)-3-(1′-(4-fluoro-2-isopropoxybenzyl)-6-oxo-6,8-dihydro-2H,7H-spiro[furo[2,3-e]isoindole-3,4′-piperidin]-7-yl)piperidine-2,6-dione] | > 500 | 40 to 60 | 
O=C1CC[C@H](N2Cc3c(ccc4c3OCC43CCN(C[C@@H]4C[C@H]4c4ccc(F)cc4)CC3)C2=O)C(=O)N1 [Compound A362, (S)-3-(1′-(((1R,2R)-2-(4-fluorophenyl)cyclopropyl)methyl)-6-oxo-6,8-dihydro-2H,7H-spiro[furo[2,3-e]isoindole-3,4′-piperidin]-7-yl)piperidine-2,6-dione] | > 500 | 40 to 60 | 
